Source: the supplement of paper PMC6045584
± gives the standard deviation of the averaged measurements.

What was measured:
[1] = compound: C=CC(=O)Nc1cc2c(Nc3ccc(F)c(Cl)c3)ncnc2cc1OCCCN1CCOCC1 [CANERTINIB]; test: surviving fraction relative to DMSO-only wells; higher = less growth inhibition; settings: exposure time: 5 days
In short: (§1)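 Continuous five-day exposure to inhibitors at 0.5, 1, 5, 10, 50, 100, 500 and 1000 nM started 24 hours after log-phase tumour cell lines were seeded at 250–500 cells per well in 384-well plates. Luminescence was read after 10 minutes at room temperature. Viability is given as surviving fraction, meaning CellTiter-Glo luminescence normalised to the median of DMSO-only wells.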

[2] = compound: CC[C@@H]1C(=O)N(C)c2cnc(Nc3ccc(C(=O)NC4CCN(C)CC4)cc3OC)nc2N1C1CCCC1 [BI-2536]; test: as above; settings: exposure time: 5 days
In short: as §1

| Test System | surviving fraction ([1]; 0.5 nM) | surviving fraction ([1]; 1 nM) | surviving fraction ([1]; 5 nM) | surviving fraction ([1]; 10 nM) | surviving fraction ([1]; 50 nM) | surviving fraction ([1]; 100 nM) | surviving fraction ([1]; 500 nM) | surviving fraction ([1]; 1000 nM) | surviving fraction ([2]; 0.5 nM) | surviving fraction ([2]; 1 nM) | surviving fraction ([2]; 5 nM) | surviving fraction ([2]; 10 nM) | surviving fraction ([2]; 50 nM) | surviving fraction ([2]; 100 nM) | surviving fraction ([2]; 500 nM) | surviving fraction ([2]; 1000 nM) |
| --- | --- | --- | --- | --- | --- | --- | --- | --- | --- | --- | --- | --- | --- | --- | --- | --- |
| CME SYNOVIAL | 0.93 ± 0.083 | 0.969 ± 0.098 | 0.918 ± 0.065 | 0.888 ± 0.087 | 1.18 ± 0.034 | 1.2 ± 0.11 | 1.05 ± 0.033 | 0.876 ± 0.11 | 1.02 ± 0.077 | 0.988 ± 0.11 | 0.683 ± 0.18 | 0.378 ± 0.031 | 0.278 ± 0.023 | 0.237 ± 0.01 | 0.259 ± 0.004 | 0.279 ± 0.011 |
| COLO320DM LARGE INTESTINE | 1.14 ± 0.076 | 1.15 ± 0.042 | 1.04 ± 0.062 | 1.05 ± 0.06 | 1.11 ± 0.084 | 1.04 ± 0.047 | 0.893 ± 0.032 | 0.66 ± 0.018 | 1.17 ± 0.018 | 1.08 ± 0.015 | 1.09 ± 0.051 | 0.836 ± 0.034 | 0.191 ± 0.019 | 0.0987 ± 0.0025 | 0.105 ± 0.011 | 0.109 ± 0.0025 |
| G292 BONE | 0.914 ± 0.061 | 0.949 ± 0.028 | 0.966 ± 0.055 | 0.957 ± 0.019 | 0.955 ± 0.054 | 0.997 ± 0.073 | 0.876 ± 0.046 | 0.677 ± 0.051 | 0.9403 ± 0.0023 | 0.659 ± 0.042 | 0.254 ± 0.012 | 0.23 ± 0.013 | 0.161 ± 0.011 | 0.128 ± 0.0057 | 0.0832 ± 0.0094 | 0.0727 ± 0.0063 |
| H23 LUNG | 0.908 ± 0.038 | 0.86 ± 0.051 | 0.742 ± 0.031 | 0.553 ± 0.032 | 0.403 ± 0.035 | 0.3637 ± 0.0035 | 0.29 ± 0.011 | 0.252 ± 0.014 | 1.09 ± 0.05 | 1.05 ± 0.048 | 0.991 ± 0.065 | 0.446 ± 0.016 | 0.272 ± 0.015 | 0.213 ± 0.015 | 0.16 ± 0.014 | 0.142 ± 0.0076 |
| HCC38 BREAST | 1.01 ± 0.11 | 1.07 ± 0.18 | 1.08 ± 0.24 | 1.05 ± 0.082 | 1.19 ± 0.17 | 1.18 ± 0.12 | 0.948 ± 0.1 | 0.864 ± 0.16 | 1.08 ± 0.078 | 1.15 ± 0.18 | 0.289 ± 0.021 | 0.247 ± 0.038 | 0.219 ± 0.025 | 0.254 ± 0.017 | 0.191 ± 0.019 | 0.115 ± 0.024 |
| HCC70 BREAST | 0.991 ± 0.14 | 1.088 ± 0.0046 | 1.02 ± 0.078 | 0.96 ± 0.019 | 0.911 ± 0.047 | 0.893 ± 0.017 | 0.707 ± 0.0092 | 0.666 ± 0.068 | 1.08 ± 0.026 | 0.933 ± 0.12 | 0.57 ± 0.047 | 0.35 ± 0.053 | 0.623 ± 0.041 | 0.795 ± 0.043 | 0.593 ± 0.042 | 0.391 ± 0.045 |
| HCC202 BREAST | 0.939 ± 0.12 | 0.93 ± 0.18 | 0.867 ± 0.21 | 0.682 ± 0.011 | 0.602 ± 0.19 | 0.494 ± 0.053 | 0.333 ± 0.057 | 0.177 ± 0.051 | 0.938 ± 0.18 | 0.952 ± 0.097 | 0.421 ± 0.034 | 0.345 ± 0.037 | 0.538 ± 0.033 | 0.502 ± 0.12 | 0.379 ± 0.044 | 0.306 ± 0.062 |
| HCC1395 BREAST | 0.955 ± 0.095 | 0.901 ± 0.022 | 1 ± 0.15 | 0.905 ± 0.059 | 1.13 ± 0.068 | 1.05 ± 0.021 | 1.06 ± 0.11 | 1.01 ± 0.066 | 1.04 ± 0.12 | 0.9 ± 0.043 | 0.709 ± 0.18 | 0.623 ± 0.15 | 0.729 ± 0.071 | 0.661 ± 0.05 | 1.11 ± 0.19 | 0.78 ± 0.029 |
| HCC1806 BREAST | 0.803 ± 0.11 | 0.688 ± 0.12 | 0.738 ± 0.081 | 0.706 ± 0.022 | 0.738 ± 0.12 | 0.639 ± 0.027 | 0.442 ± 0.043 | 0.328 ± 0.037 | 0.932 ± 0.046 | 0.749 ± 0.07 | 0.05 ± 0.0082 | 0.0447 ± 0.026 | 0.126 ± 0.025 | 0.136 ± 0.0081 | 0.106 ± 0.0027 | 0.0743 ± 0.015 |
| HCC1954 BREAST | 0.376 ± 0.025 | 0.336 ± 0.0092 | 0.382 ± 0.014 | 0.316 ± 0.014 | 0.263 ± 0.011 | 0.258 ± 0.015 | 0.136 ± 0.016 | 0.117 ± 0.0071 | 0.883 ± 0.13 | 0.766 ± 0.2 | 0.245 ± 0.035 | 0.235 ± 0.057 | 0.433 ± 0.0095 | 0.781 ± 0.0014 | 0.89 ± 0.035 | 0.699 ± 0.014 |
